Test results published in paper PMC6021390, “A promiscuous cytochrome P450 aromatic O-demethylase for lignin bioconversion” (Nature Communications, 2018).
“Also recorded” adds a separate entry of the source. Where two headings read alike, the source gives them in different places.

Columns and labels:
GcoAB [1] = target: T1, GcoAB (Amycolatopsis sp., UniProt P0DPQ7); assay: HPLC quantification of demethylated aromatic product versus NADH consumed; format: biochemical, Amycolatopsis sp. ATCC 39116; set-up: GST (N, cleaved yes); made in house; host or cells: E. coli Rosetta 2 (DE3); settings: saturating substrate, 300 μM NADH, 0.2 μM GcoAB
T1 sequence (P0DPQ7 1-407): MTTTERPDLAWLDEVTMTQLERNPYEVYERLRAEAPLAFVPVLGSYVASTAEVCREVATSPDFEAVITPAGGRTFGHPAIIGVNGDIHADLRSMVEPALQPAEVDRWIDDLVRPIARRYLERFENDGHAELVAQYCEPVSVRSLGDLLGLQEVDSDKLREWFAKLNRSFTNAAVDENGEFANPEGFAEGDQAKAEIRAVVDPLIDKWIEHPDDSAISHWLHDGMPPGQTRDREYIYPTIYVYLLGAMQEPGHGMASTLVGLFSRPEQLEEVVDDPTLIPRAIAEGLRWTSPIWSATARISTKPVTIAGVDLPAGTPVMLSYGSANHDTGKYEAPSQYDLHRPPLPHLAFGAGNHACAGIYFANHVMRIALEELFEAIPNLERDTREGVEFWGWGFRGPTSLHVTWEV
T1 sequence (P0DPQ8 1-334 partner): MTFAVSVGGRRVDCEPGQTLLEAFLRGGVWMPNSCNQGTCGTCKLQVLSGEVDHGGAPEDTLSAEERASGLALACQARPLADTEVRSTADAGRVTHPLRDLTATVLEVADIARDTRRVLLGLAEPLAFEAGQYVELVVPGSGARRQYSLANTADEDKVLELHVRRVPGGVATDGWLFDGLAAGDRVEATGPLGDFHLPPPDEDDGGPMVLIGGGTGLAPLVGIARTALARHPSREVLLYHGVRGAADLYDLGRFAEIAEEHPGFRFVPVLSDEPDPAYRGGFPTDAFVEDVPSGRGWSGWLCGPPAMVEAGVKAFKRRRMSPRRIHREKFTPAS
Protocol: Analyte analysis of samples was performed on an Agilent 1200 LC system (Agilent Technologies, Santa Clara, CA) equipped with a G1315A diode array detector (DAD). Each sample and standard was injected at a volume of 10 μL onto a Phenomenex Luna C18(2) column 5 μm, 4.6 × 150 mm column (Phenomenex, Torrance, CA). The column temperature was maintained at 30 °C and the buffers used to separate the analytes of interest was 0.05% acetic acid in water (A)/ acetonitrile (B). The separation was carried out using a gradient program of: (A) = 99% and (B) = 1% at time t = 0; (A) = 99% and (B) = 1% at time t = 5, (A) = 50% and (B) = 50% at t = 35 min; (A) = 1% and (B) = 99% at t = 35.01 min; (A) = 99% and (B) = 1% at t = 37.01 min; (A) = 99% and (B) = 1% at t = 47.00 min. The flow rate was held constant at 0.6 mL min^−1 resulting in a run time of 47 min. Calibration curve concentration for each analyte varied between the ranges of 2.5–200 µg L^−1. A DAD wavelength of 225 nm was used for analysis of the analytes of interest. […] A minimum of 3–5 calibration levels was used with an r^2 coefficient of 0.995 or better for each analyte and a check calibration standard (CCS) was analyzed every 10 samples to insure the integrity of the initial calibration.

GcoAB [2] = target: T1, GcoAB; assay: Aldehyde product determination (tryptophan assay for formaldehyde, dehydrogenase assay for acetaldehyde) versus NADH consumed; format: biochemical, Amycolatopsis sp. ATCC 39116; set-up: GST (N, cleaved yes); made in house; host or cells: E. coli Rosetta 2 (DE3); settings: formaldehyde (acetaldehyde for guaethol), saturating substrate, 300 μM NADH, 0.2 μM GcoAB
Excerpt: For the quantification of formaldehyde (demethylation) or acetaldehyde (de-ethylation) production, the reaction was monitored via UV/vis or fluorescence (in the case of vanillin) using the same set of conditions as outlined above for specific activity determination. After eight minutes, aliquots of the sample were removed and carried onto the respective aldehyde detection assay. For reactions that produced formaldehyde (e.g., all substrates except guaethol), a colorimetric tryptophan assay was used, described previously. Briefly, 200 µL of the reaction was quenched by adding 200 µL of 0.1% tryptophan solution in 50% ethanol, 200 µL 90% sulfuric acid and 40 µL of 1% FeCl3. The solution was then incubated in a heating block for 90 min at 70 °C. After cooling, the absorbance was read at 575 nm and the [formaldehyde] calculated by comparing to a standard curve made with 0–320 µM formaldehyde. A reaction with just the assay components was treated in the same manner as the reaction samples and used as a baseline. Control reactions included everything but GcoA/B, catalase, and substrate. Reported values are the average of ≥3 measurements.
[Acetaldehyde] produced during the dealkylation of guaethol was also determined by using a colorimetric assay and a generated acetaldehyde standard curve. A kit from BioAssays was used. Briefly, 20 µL of the reacted sample was transferred to a 96-well plate and 80 µL of the working reagent, consisting of NAD/MTT and aldehyde dehydrogenase, was added. The reaction was incubated for 30 min at room temperature and the absorbance read at 565 nm. Aldehyde dehydrogenase and NAD react with acetaldehyde to produce acetic acid and NADH. […] Control reactions included samples without substrate and/or aldehyde dehydrogenase. Reported values are the average of ≥3 measurements.

GcoA = target: T2, GcoA (Amycolatopsis sp., UniProt P0DPQ7); assay: Determination of substrate dissociation constants with GcoA (UV/vis spectral shift titration; fluorescence quenching for vanillin); format: binding
T2 construct: GST (N, cleaved yes); made in house; host or cells: E. coli Rosetta 2 (DE3)
T2 sequence (P0DPQ7 1-407): T1 sequence (P0DPQ7 1-407)
Protocol: A total of 0–60 µM of substrate analogs, in 0.25 or 0.5 µM aliquots, were titrated into a cuvette containing 1–6 µM GcoA in 25 mM HEPES, 50 mM NaCl, pH 7.5. The spectrum after each substrate addition was recorded, beginning with no substrate bound. The solution reached equilibrium before the next addition. A difference spectrum was made to illustrate the shift from a low-spin aquo-heme complex to the high-spin substrate-bound complex (spectral shift from 417 nm to 388 nm). […] The absorbance at 388 nm was plotted as a function of [substrate], yielding a quadratic curve that was fit to Eq. (7) to determine the KD.7 ΔAbsobs=ΔAbsmax/2EtL0+Et+KD-L0+Et+KD^2-4Et*L0. Where L0, Et, KD, and ΔAbsmax are the ligand concentrations, total protein (subunit) concentration, the equilibrium dissociation constant, and the maximum Abs388–417 nm, respectively. Reported values are the average of 2 or more measurements.
Since the UV/vis spectra of vanillin and heme overlap, fluorescence quenching was monitored to determine the KD. […] Fluorescence emission intensity was followed upon titration of vanillin (0–350 µM) after equilibrium had been established. The % fluorescence quenched, Eq. (8), was plotted as a function of vanillin and fit to Eq. (7) above, replacing ΔAbsmax with ΔFluorescencemax.8 %Fquenched=Fmax-Fintensity/Fmax×100%.

LigX = test system: T3, LigX; assay: Cited steady-state O-demethylation of 5,5'-dehydrodivanillate (10-500 uM) by 0.2 uM LigXa, 6 uM LigXc and 0.4 uM LigXd with 500 uM NADH in FE22 buffer, pH 6.0, 30 °C, air.; format: biochemical; settings: cited from earlier work
T3 construct: LigXa with LigXc and LigXd

GcoAB [3] = target: T1, GcoAB; settings: for substrate classification with GcoAB: coupling of NADH consumption to demethylation; for binding or catalytic interaction with GcoA: screen of ten O-methylated aromatic compounds
Protocol: The demethylation of guaiacol and substrate analogs was continuously monitored under steady-state conditions. […] A total of 100 µg/mL catalase was added to each reaction to capture any H2O2 formed during the uncoupled reaction. […] A total of 20–300 µM guaiacol (preferred substrate) or an alternate substrate from a 2.5 mM stock dissolved in DMSO was added and the reaction was monitored via measurement of UV/vis spectra for several minutes. […] A plot of vi vs [guaiacol] was fit to Eq. (2) to obtain kcat, KM, and kcat/KM. For specific activity determination, the above method was used but with saturating (300 µM) guaiacol. […] Reported values are the average of ≥3 measurements and reported errors are standard deviations.
Reactions with vanillin were performed in the same manner described above.

LigM = test system: LigM; set-up: method as in ref 35 (a number printed in a supplementary file, which may have a reference list of its own: not looked up in the article's list); settings: 0.076 μM LigM, 5 mM H4-folate, pH 8.0, 30 °C, cited from earlier work
[4] = substrate: COc1cccc(O)c1O; assay: purified protein, by the assay type; settings: other: 0.2 μM GcoAB, 300 μM NADH, pH 7.5, 25 °C, air
[5] = substrate: COc1ccccc1; assay: purified protein, by the assay type; settings: other: 0.2 μM GcoAB, 300 μM NADH, pH 7.5, 25 °C, air
[6] = substrate: COc1ccccc1C; assay: purified protein, by the assay type; settings: other: 0.2 μM GcoAB, 300 μM NADH, pH 7.5, 25 °C, air
[7] = substrate: COc1ccccc1O; assay: purified protein, by the assay type; settings: other: 0.2 μM GcoAB, 300 μM NADH, pH 7.5, 25 °C, air
[8] = substrate: CCOc1ccccc1O; assay: purified protein, by the assay type; settings: other: 0.2 μM GcoAB, 300 μM NADH, pH 7.5, 25 °C, air
[9] = 1–6 μM GcoA, 25 °C, 25 mM HEPES, 50 mM NaCl, pH 7.5, read-out: Compound KD

COc1ccccc1C [2-methylanisole]
Demethylated product: amount produced per NADH consumed (GcoAB [1]): 0.20 ± 0.04
Aldehyde produced per NADH consumed (GcoAB [2]): 0.90 ± 0.1
Kd (GcoA; [9]): 1000 ± 100 nM

COc1cccc(O)c1O [3-methoxycatechol]
Demethylated product: amount produced per NADH consumed (GcoAB [1]): 0.97 ± 0.002
Aldehyde produced per NADH consumed (GcoAB [2]): 0.90 ± 0.04
Kd (GcoA; [9]): 3700 ± 100 nM

COc1cc(C(=O)O)cc(-c2cc(C(=O)O)cc(OC)c2O)c1O [5,5'-dehydrodivanillate]
Km (LigX): 64 µM

COc1ccccc1 [Anisole]
Demethylated product: amount produced per NADH consumed (GcoAB [1]): 0.62 ± 0.1
Aldehyde produced per NADH consumed (GcoAB [2]): 1.1 ± 0.01
Kd (GcoA; [9]): 1700 ± 200 nM

CCOc1ccccc1O [Guaethol]
reduction in kcat compared to guaiacol (GcoAB [3]): almost fivefold reduction
Demethylated product: amount produced per NADH consumed (GcoAB [1]): 1.4 ± 0.3
Aldehyde produced per NADH consumed (GcoAB [2]): 1.5 ± 0.14
Kd (GcoA; [9]): 70 ± 30 nM

COc1ccccc1O [Guaiacol, 2-methoxyphenol]
specific activity (GcoAB [3]; 300 μM guaiacol, 0.2 μM GcoA/B, 300 μM NADH, pH 7.5, 25 °C): 4.6 mM NADH sec-1 [mM GcoA]-1
kcat (GcoAB [3]; Supplementary Figure 20, 0.2 μM GcoA/B, 300 μM NADH, ambient O2, pH 7.5, 25 °C): 6.8 ± 0.5 s⁻¹
kcat (GcoAB [3]; Supplementary Table 4, 0.2 μM GcoA/B, 300 μM NADH, 5-300 μM guaiacol, pH 7.5, 25 °C, air): 6.8 ± 0.5 s⁻¹
Demethylated product: amount produced per NADH consumed (GcoAB [1]): 1.2 ± 0.3
Aldehyde produced per NADH consumed (GcoAB [2]): 1.2 ± 0.15
Kd (GcoA; [9]): 6 ± 2 nM
Kd (GcoA; binding to GcoA, read-out: KD): 6 nM

COc1cccc(OC)c1O [Syringol]
substrate classification with GcoAB (GcoAB [3]): partial substrate, partial uncoupler
Demethylated product: amount produced per NADH consumed (GcoAB [1]): 0.21 ± 0.002
Kd (GcoA; [9]): 2800 ± 400 nM

COc1cc(C=O)ccc1O [Vanillin]
substrate classification with GcoAB (GcoAB [3]): partial substrate, partial uncoupler
Demethylated product: amount produced per NADH consumed (GcoAB [1]): 0.20 ± 0.01
Aldehyde produced per NADH consumed (GcoAB [2]): 0.40 ± 0.04
Aldehyde produced per NADH consumed (GcoAB [2]; listed as vanillin): less than stoichiometric amounts of formaldehyde
Kd (GcoA): 37000 ± 3000 nM

COc1cc(/C=C/C(=O)O)ccc1O [ferulate]
binding or catalytic interaction with GcoA (GcoAB [3]): no detectable binding or catalytic interaction; also recorded: preclude binding and/or demethylation

COc1cc(C(=O)O)ccc1O [vanillate]
binding or catalytic interaction with GcoA (GcoAB [3]): no detectable binding or catalytic interaction; also recorded: preclude binding and/or demethylation
Km (LigM): 630 ± 80 µM
kcat (LigM; vanillate 0.1-5 mM, 100 mM Tris, air): 5.8 ± 0.25 s⁻¹

COc1ccccc1OC [veratrole]
substrate classification with GcoAB (GcoAB [3]): non-substrate/non-binder
binding or catalytic interaction with GcoA (GcoAB [3]): no detectable binding or catalytic interaction

B1: GcoAB (Amycolatopsis sp. ATCC 39116) (protein)
chain: T1 sequence (P0DPQ7 1-407)
Km [4]: 30 ± 3 µM
kcat [4]: 2.1 ± 0.05 s⁻¹
kcat/Km [4]: 75000 ± 7000 M⁻¹ s⁻¹
Km [5]: 43 ± 4 µM
kcat [5]: 3.5 ± 0.2 s⁻¹
kcat/Km [5]: 82000 ± 8000 M⁻¹ s⁻¹
Km [6]: 27 ± 3 µM
kcat [6]: 4.6 ± 0.1 s⁻¹
kcat/Km [6]: 170000 ± 20000 M⁻¹ s⁻¹
Km [7]: 60 ± 10 µM
kcat [7]: 6.8 ± 0.5 s⁻¹
kcat/Km [7]: 110000 ± 20000 M⁻¹ s⁻¹
Km [8]: 15 ± 4 µM
kcat [8]: 1.4 ± 0.09 s⁻¹
kcat/Km [8]: 100000 ± 20000 M⁻¹ s⁻¹
